Data from ChEMBL document CHEMBL1137586, “Aminomethyl tetrahydronaphthalene ketopiperazine MCH-R1 antagonists--Increasing selectivity over hERG” (Bioorg Med Chem Lett, 2007).

How the values were obtained:
[1] = biological target: T1, Melanin-concentrating hormone receptor 1 (Homo sapiens, UniProt Q99705); test: Functional antagonism of MCH-R1 expressed in HEK293 cells; format: cell-based
[2] = biological target: T2, Voltage-gated inwardly rectifying potassium channel KCNH2 (Homo sapiens, UniProt Q12809); test: Inhibition of binding to hERG
hERG (KCNH2) = hERG (KCNH2) (Homo sapiens, UniProt Q12809); test: Percent inhibition of binding to hERG at10uM
[3] = Serum concentration in DIO mice 2 hr post 20mg/kg peroral dose; format: ADME, organism-based; settings: mouse, po, read-out: Serum conc
[4] = biological target: T1, Melanin-concentrating hormone receptor 1; test: Inhibition of binding to MCH-R1
Mus musculus = test: Percent weight loss in DIO mice 4 days after 20 mg/kg peroral dose; format: functional; settings: route oral
[5] = biological target: T2, Voltage-gated inwardly rectifying potassium channel KCNH2; test: Prolonged QTc interval in anaesthetized dogs after 15min infusion at 30 mg/kg compared to vehicle; settings: dog, in vivo, iv, 0.25 h
[6] = Relative concentration in DIO mouse brain over serum 2 hr post 20mg/kg peroral dose; format: ADME, organism-based; settings: po

T2 sequence (Q12809 whole entry): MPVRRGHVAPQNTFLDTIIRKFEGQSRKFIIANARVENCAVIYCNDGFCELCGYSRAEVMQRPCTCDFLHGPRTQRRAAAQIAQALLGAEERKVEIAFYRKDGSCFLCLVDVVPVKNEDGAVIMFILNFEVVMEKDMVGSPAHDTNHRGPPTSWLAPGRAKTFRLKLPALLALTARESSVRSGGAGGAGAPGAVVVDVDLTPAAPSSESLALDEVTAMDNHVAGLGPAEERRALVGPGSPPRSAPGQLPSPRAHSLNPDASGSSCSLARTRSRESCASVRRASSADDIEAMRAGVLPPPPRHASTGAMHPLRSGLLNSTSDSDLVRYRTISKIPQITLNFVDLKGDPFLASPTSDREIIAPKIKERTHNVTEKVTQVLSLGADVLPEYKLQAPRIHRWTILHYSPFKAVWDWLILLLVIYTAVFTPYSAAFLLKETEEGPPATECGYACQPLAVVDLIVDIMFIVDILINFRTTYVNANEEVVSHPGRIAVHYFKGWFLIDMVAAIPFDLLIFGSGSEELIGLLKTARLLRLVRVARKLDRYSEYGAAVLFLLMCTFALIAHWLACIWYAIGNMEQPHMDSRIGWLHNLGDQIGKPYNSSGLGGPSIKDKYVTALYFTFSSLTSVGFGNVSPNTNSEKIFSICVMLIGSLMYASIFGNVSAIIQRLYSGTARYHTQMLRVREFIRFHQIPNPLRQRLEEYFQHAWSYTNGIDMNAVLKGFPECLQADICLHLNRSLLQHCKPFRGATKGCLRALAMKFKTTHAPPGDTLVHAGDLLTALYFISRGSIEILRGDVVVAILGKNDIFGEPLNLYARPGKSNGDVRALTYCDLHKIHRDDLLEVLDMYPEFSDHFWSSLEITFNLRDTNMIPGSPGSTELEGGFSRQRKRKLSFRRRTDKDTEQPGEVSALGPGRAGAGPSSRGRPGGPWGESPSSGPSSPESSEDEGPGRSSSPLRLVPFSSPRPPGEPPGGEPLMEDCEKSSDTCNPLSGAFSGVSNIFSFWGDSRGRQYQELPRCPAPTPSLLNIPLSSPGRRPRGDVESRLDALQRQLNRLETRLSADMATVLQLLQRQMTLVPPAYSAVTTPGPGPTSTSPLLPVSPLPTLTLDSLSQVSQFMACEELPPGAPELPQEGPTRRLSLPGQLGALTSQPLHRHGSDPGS
T1 sequence (Q99705 whole entry): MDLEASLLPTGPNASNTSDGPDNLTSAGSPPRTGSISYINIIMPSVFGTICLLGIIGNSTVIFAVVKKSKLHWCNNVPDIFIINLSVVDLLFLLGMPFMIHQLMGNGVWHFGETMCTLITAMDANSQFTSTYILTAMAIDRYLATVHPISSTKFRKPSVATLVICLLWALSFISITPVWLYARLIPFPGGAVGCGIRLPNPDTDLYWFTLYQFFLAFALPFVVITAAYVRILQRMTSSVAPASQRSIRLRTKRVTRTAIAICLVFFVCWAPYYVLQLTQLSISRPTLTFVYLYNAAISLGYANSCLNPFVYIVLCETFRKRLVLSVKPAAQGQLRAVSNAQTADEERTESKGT
Sequence of hERG (KCNH2) (Q12809 whole entry): as the sequence (Q12809 whole entry) above

Question: With `CCN(CC)Cc1ccc2c(c1)CC[C@H](N1CCN(CCC3CCCS3)CC1=O)C2` (stereo partly drawn) as the molecule, how does the Ki [1] read?
Answer: The Ki was 0.047 µM.

Question: With `O=C1CN(CCc2ccc(F)cc2)CCN1[C@H]1CCc2cc(Cn3ccnc3)ccc2C1` as the molecule, how does the Ki [1] read?
Answer: Its Ki is 52 µM.

Question: And the IC50 [2]?
Answer: The IC50 was 4 µM.

Question: Which IC50 [2] does the source give for `CN(C)C(=O)C(CO)N(C)Cc1ccc2c(c1)CC[C@H](N1CCN(CCc3ccc(F)cc3)CC1=O)C2` (stereo partly drawn) here?
Answer: The IC50 was 25 µM.

Question: For `O=C1CN(CCc2ccc(F)cc2)CCN1[C@H]1CCc2cc(CNCC(F)(F)F)ccc2C1`, which inhibition at 10 µM (hERG (KCNH2)) is on record?
Answer: Its inhibition at 10 µM is > 50%.

Question: With `CCN(CC)Cc1ccc2c(c1)CC[C@H](N1CCN(CCc3ccc(Cl)cc3)CC1=O)C2` as the molecule, how does the Ki [1] read?
Answer: The Ki was 0.0033 µM.

Question: Which concentration at 2 h [3] does the source give for `CCN(CC)Cc1ccc2c(c1)CC[C@H](N1CCN(CCc3ccc(F)cc3)CC1=O)C2` here?
Answer: Its concentration at 2 h is 2 µM.

Question: What about the Ki [4] of the same molecule?
Answer: Its Ki is 0.015 µM.

Question: What about the Weight loss (Mus musculus) of the same molecule?
Answer: Its Weight loss is 4%.

Question: For `CS(=O)(=O)N1CCN(Cc2ccc3c(c2)CC[C@H](N2CCN(CCc4ccc(F)cc4)CC2=O)C3)CC1`, which Ki [1] is on record?
Answer: The Ki was 30 µM.

Question: What about the concentration at 2 h [3] of the same molecule?
Answer: The concentration at 2 h was 9 µM.

Question: What about the IC50 [2] of the same molecule?
Answer: Its IC50 is 13 µM.

Question: And the Weight loss (Mus musculus)?
Answer: The Weight loss was 3%.

Question: With `CCN(CC)Cc1ccc2c(c1)CC[C@H](N1CCN(CCc3cccc(C(F)(F)F)c3)CC1=O)C2` as the molecule, how does the Ki [1] read?
Answer: The Ki was 0.093 µM.

Question: With `CC(=O)N1CCN(Cc2ccc3c(c2)CC[C@H](N2CCN(CCc4ccc(F)cc4)CC2=O)C3)CC1` as the molecule, how does the Ki [1] read?
Answer: Its Ki is 16 µM.

Question: What about the QT interval [5] of the same molecule?
Answer: The QT interval was “Active p<0.05”.

Question: And the concentration at 2 h [3]?
Answer: The concentration at 2 h was 4 µM.

Question: And the IC50 [2]?
Answer: Its IC50 is 25 µM.

Question: And the Weight loss (Mus musculus)?
Answer: The Weight loss was <2%.

Question: And the Kp at 2 h [6]?
Answer: The Kp at 2 h was 0.3.

Question: For `O=C1CN(CCc2ccc(F)cc2)CCN1[C@H]1CCc2cc(CN3CCC(C(F)(F)F)CC3)ccc2C1`, which Ki [1] is on record?
Answer: Its Ki is 8.7 µM.

Question: And the IC50 [2]?
Answer: Its IC50 is 2 µM.

Question: Which Ki [1] does the source give for `O=C1CN(CCc2ccc(F)cc2)CCN1[C@H]1CCc2cc(CN3CCOCC3)ccc2C1` here?
Answer: The Ki was 15 µM.

Question: And the IC50 [2]?
Answer: Its IC50 is 11 µM.

Question: Which concentration at 2 h [3] does the source give for `O=C1CN(CCc2ccc(F)cc2)CCN1[C@H]1CCc2cc(CN3CCS(=O)(=O)CC3)ccc2C1` here?
Answer: The concentration at 2 h was 16 µM.

Question: And the IC50 [2]?
Answer: Its IC50 is 24 µM.

Question: And the Weight loss (Mus musculus)?
Answer: The Weight loss was <2%.

Question: For `CCN(CC)Cc1ccc2c(c1)CC[C@H](N1CCN(CCC3CCCCC3)CC1=O)C2`, which Ki [1] is on record?
Answer: The Ki was 0.032 µM.
